Key:
Rat PK, oral gavage = type: in vivo; details: fasted male Sprague-Dawley rats, oral gavage 2 mg/kg and/or 10 mg/kg, sodium salt of 5B used; for half-life: male, Sprague-Dawley, rat, whole blood, po; for T1/2: blood
Description: A group of fasted male Sprague-Dawley rats were dosed via oral gavage at 2 mg/kg and/or 10 mg/kg with test articles formulated in 0.5% methylcellulose suspension with 0.01% polysorbate 80 in PBS (phosphate buffered saline). Blood samples were collected through jugular vein at pre-selected time points. Blood samples were prepared by protein precipitation with ACN, vortexed and then centrifuged before supernatants were transferred for bioanalysis. Test article concentrations were measured by HPLC-MS-MS. Pharmacokinetic parameters were calculated using non-compartment analysis. The T1/2 was calculated via a linear regression of the terminal phase of the blood-time concentration profile.
Results for various compounds disclosed herein (sodium salt of compound 5B described above was used) and select reference compounds (Compound A and Compound B) are summarized in Table 5A and Table 5B.

Hb = target: T1, Hb (Homo sapiens, UniProt P68871+P69905); assay: Whole blood assay: oxygen equilibrium curves (Hemox Analyzer), change in O2 affinity of Hb; type: cell-based; details: whole blood incubated 1 h at 37° C., equimolar ratio of hemoglobin to compound; sodium salts of 2B (Enantiomer 1), 4B, 5B used
T1 construct: from tissue
T1 sequence (P69905 2-142 limits assumed): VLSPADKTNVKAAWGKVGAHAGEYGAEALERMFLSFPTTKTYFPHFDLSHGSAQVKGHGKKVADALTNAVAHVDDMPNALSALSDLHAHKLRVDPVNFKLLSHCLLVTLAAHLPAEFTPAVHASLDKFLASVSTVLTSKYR
T1 sequence (P68871 2-147 limits assumed): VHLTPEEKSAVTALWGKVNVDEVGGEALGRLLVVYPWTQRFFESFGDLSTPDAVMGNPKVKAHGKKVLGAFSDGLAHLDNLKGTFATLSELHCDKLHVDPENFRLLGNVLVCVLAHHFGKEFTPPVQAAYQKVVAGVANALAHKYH
Description: Oxygen equilibrium curves (OECs) were collected using a TCS Hemox Analyzer (TCS Scientific Company, New Hope, PA, USA) to measure changes in the binding affinity of O2 to Hb. Whole blood was incubated for 1 h at 37° C. with the indicated compounds in an equimolar ratio of hemoglobin to compound and diluted into TES (2-[[1,3-dihydroxy-2-(hydroxymethyl)propan-2-yl]amino]ethanesulfonic acid)/saline buffer prior to measurements. The diluted samples were then oxygenated with compressed air within the Hemox Analyzer and the OECs were collected during deoxygenation as previously described (Guarnone et al., Haematologica, 1995, 80, 426-430). p 50 (partial pressure of 02 at which Hb is 50% saturated with 02) values were obtained using a non-linear regression analysis. Percentage change in p 50 [Δp50(%)]was calculated as follows: Δp50(%)=[(p 50 of control)-p 50 with compound)/p 50 control]x 100. The sodium salts of compounds 2B (Enantiomer 1), 4B, and 5B described above were used.

half-life (Rat PK, oral gavage)	Delta-p50 (%) (Hb)	T1/2 (Rat PK, oral gavage)	Structure (SMILES)
89.2 h	63.6%	–	O=Cc1c(O)cccc1OC[C@@H]1CCCCN1C(=O)c1ccccc1CC(=O)O [Compound 4A, 2-{2-[(2S)-2-[(2-formyl-3-hydroxyphenoxy)methyl]piperidine-1-carbonyl]phenyl} acetic acid]
11.7 h	0.4%	–	O=Cc1c(O)cccc1OC[C@@H]1CCCCN1C(=O)c1cccnc1C(=O)O [Compound 1B, 3-[(2S)-2-[(2-formyl-3-hydroxyphenoxy)methyl]piperidine-1-carbonyl]pyridine-2-carboxylic acid]
29.8 h	–	–	O=Cc1c(O)cccc1OC[C@@H]1COCCN1C(=O)c1ccccc1 [Reference Compound B, reference compound]
–	10.72%	–	O=Cc1c(O)cccc1OCC1CSCCN1C(=O)c1cccnc1CC(=O)O (single isomer, unassigned) [Compound 2B (Enantiomer 1), 2-{3-[3-[(2-formyl-3-hydroxyphenoxy)methyl]thiomorpholine-4-carbonyl]pyridin-2-yl} acetic acid]
25.9 h	–	–	O=Cc1c(O)cccc1OC[C@@H]1CCCCN1C(=O)c1ccccc1 [Reference Compound A, reference compound]
–	0.65%	–	O=Cc1c(O)cccc1OC[C@@H]1COCCN1C(=O)c1cccnc1C(=O)O [Compound 3B, 3-[(3S)-3-[(2-formyl-3-hydroxyphenoxy)methyl]morpholine-4-carbonyl]pyridine-2-carboxylic acid]
–	11.72%	–	O=Cc1c(O)cccc1OC[C@@H]1COCCN1C(=O)c1ccccc1CC(=O)O [Compound 3A, 2-{2-[(3S)-3-[(2-formyl-3-hydroxyphenoxy)methyl]morpholine-4-carbonyl]phenyl}acetic acid]
88.7 h	46.78%	–	O=Cc1c(O)cccc1OC[C@@H]1CSCCN1C(=O)c1ccccc1CCC(=O)O [Compound 9A, 3-{2-[(3R)-3-[(2-formyl-3-hydroxyphenoxy)methyl]thiomorpholine-4-carbonyl]phenyl}propanoic acid]
110 h	66.43%	–	O=Cc1c(O)cccc1OC[C@@H]1CCCCN1C(=O)c1ccccc1C(=O)O [Compound 1A, 2-[(2S)-2-[(2-formyl-3-hydroxyphenoxy)methyl]piperidine-1-carbonyl]benzoic acid]
52 h	77.13%	–	O=Cc1c(O)cccc1OC[C@@H]1CCCCN1C(=O)c1ccccc1CCC(=O)O [Compound 7A, 3-{2-[(2S)-2-[(2-formyl-3-hydroxyphenoxy)methyl]piperidine-1-carbonyl]phenyl}propanoic acid]
–	19.57%	13 h	O=Cc1c(O)cccc1OCC1CSCCN1C(=O)c1ccccc1C(=O)O (single isomer, unassigned) [Compound 5A (Enantiomer 2), 2-(3-((2-formyl-3-hydroxyphenoxy)methyl)thiomorpholine-4-carbonyl)benzoic acid]
102 h	55.01%	–	O=Cc1c(O)cccc1OC[C@@H]1COCCN1C(=O)c1ccccc1CCC(=O)O [Compound 8A, 3-{2-[(3S)-3-[(2-formyl-3-hydroxyphenoxy)methyl]morpholine-4-carbonyl]phenyl} propanoic acid]
120 h	−3.32%	–	O=Cc1c(O)cccc1OC[C@@H]1CCCCN1C(=O)c1cccnc1CC(=O)O [Compound 5B, (S)-2-(3-(2-((2-formyl-3-hydroxyphenoxy)methyl)piperidine-1-carbonyl)pyridin-2-yl)acetic acid]
–	−8.28%	–	O=Cc1c(O)cccc1OC[C@@H]1COCCN1C(=O)c1cccnc1CC(=O)O [Compound 4B, 2-{3-[(3S)-3-[(2-formyl-3-hydroxyphenoxy)methyl]morpholine-4-carbonyl]pyridin-2-yl} acetic acid]
–	5.09%	–	O=Cc1c(O)cccc1OCC1CSCCN1C(=O)c1ccccc1CC(=O)O (stereo not drawn) [Compound 6A, 2-(2-{3-[(2-formyl-3-hydroxyphenoxy)methyl]thiomorpholine-4-carbonyl}phenyl)acetic acid]
–	11.04%	213 h	O=Cc1c(O)cccc1OCC1CSCCN1C(=O)c1ccccc1C(=O)O (single isomer, unassigned) [Compound 5A (Enantiomer 1), 2-(3-((2-formyl-3-hydroxyphenoxy)methyl)thiomorpholine-4-carbonyl) benzoic acid]
–	14.15%	–	O=Cc1c(O)cccc1OCC1CSCCN1C(=O)c1cccnc1C(=O)O (single isomer, unassigned) [Compound 6B (Enantiomer 1), 3-[3-[(2-formyl-3-hydroxyphenoxy)methyl]thiomorpholine-4-carbonyl]pyridine-2-carboxylic acid]
–	4.19%	–	O=Cc1c(O)cccc1OC[C@@H]1COCCN1C(=O)c1ccccc1C(=O)O [Compound 2A, 2-[(3S)-3-[(2-formyl-3-hydroxyphenoxy)methyl]morpholine-4-carbonyl]benzoic acid]
